# Results published in patent US20260256789A1, “METHODS FOR TREATMENT OF CANCER” (Frontier Medicines Corporation, priority 2022, published 2026).
# Target: T1, KRAS G12C (GMPPNP-loaded) and cRAF Ras-binding domain (Homo sapiens, UniProt P01116, C118S/C51S/C80L/G12C)
# T1 construct: truncated version comprising amino acids 1-169
# Assay: Inhibition of KRAS G12C and cRAF binding (AlphaScreen)
# Conditions: KRAS G12C preloaded with GTP analogue GMPPNP, 2 hours preincubation
# Text: The ability of compounds of Formula (A), Formula (B) and Formula (C), and pharmaceutically acceptable salts and/or isotopologues thereof, to inhibit activity of the GTP-bound form of KRAS G12C can be tested using methods such as the in vitro assay described in Example 179 below. Example 179 describes determining, for various compounds, the half-maximal inhibition (IC50) of KRAS G12C loaded with GTP analogue GMPPNP from binding to cRaf, as the Ras-binding domain (RBD). Example 180 describes determining, for various compounds, the half-maximal inhibition (IC50) of KRAS G12C loaded with GTP analogue GMPPNP from binding to PI3Kα, as the Ras-binding domain (RBD). Example 181 describes testing compounds for the ability to inhibit cell viability in MCF10A G12C/A59G mutant, which abrogates GTPase activity, thus preventing hydrolysis of GTP to GDP.
# The AlphaScreen technology was used to determine IC50s for compound inhibition of KRAS G12C (present as the Cys-light (C51S, C80L and C118S), truncated version comprising amino acids 1-169) and cRAF interaction. Compounds were diluted in 100% DMSO and each compound concentration was spotted at 200 nl/well onto low volume, white 384 well plates. The KRAS G12C contained a biotin-AviTag and the cRaf, as Ras-binding domain (amino acids 50-131, RBD), was GST-tagged. KRAS G12C was preloaded with the GTP analogue Guanosine 5′-[β,γ-imido]triphosphate (GMPPNP). The KRAS G12C was diluted in 25 mM Hepes, pH 7.4, 150 mM NaCl, 5 mM MgCl2, 0.01% TritonX-100 and 10 μM GMPPNP and added at 10 ul/well to compound-spotted plates resulting in a DMSO concentration of 2%. Plates were incubated for 2 hours. A mixture of RBD and the AlphaScreen streptavidin donor and glutathione acceptor beads diluted in 25 mM Hepes, pH 7.4, 150 mM NaCl, 5 mM MgCl2, 0.01% TritonX-100 and 2% DMSO was then added at 10 ul/well and incubated for 60-90 minutes before the samples were read for emission at 570 nm after excitation of the donor beads at 680 nm. All incubations were performed at room temperature. The final top compound concentration was 50 μM with 1:3 titrations for 10-point dose response curves. Final assay conditions were 0.5 nM KRAS G12C, 0.75 nM RBD and 5 μg/ml each of AlphaScreen donor and acceptor beads. IC50s were determined using nonlinear regression fit of [inhibitor] vs. response (4 parameters). […]
# T1 sequence (P01116 1-169 isoform P01116-2 G12C/C51S/C80L/C118S): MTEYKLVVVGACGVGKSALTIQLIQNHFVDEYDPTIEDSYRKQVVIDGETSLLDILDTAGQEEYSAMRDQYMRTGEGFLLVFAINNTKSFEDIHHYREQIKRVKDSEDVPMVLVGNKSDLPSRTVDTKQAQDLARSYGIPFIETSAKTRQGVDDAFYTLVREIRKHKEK
row,IC50,SMILES
1,100 to 500 nM,"Cc1noc(/C=C/C(=O)N2CC[C@@H](N(C)c3nc(OCC45CCCN4CCC5)nc4c3C[C@@H](C)[C@H](c3nc(N)cc(C)c3C(F)(F)F)C4)C2)n1 (single isomer, unassigned) [Compound 9]"
2,< 10 nM,Cc1cc(/C=C/C(=O)N2CC[C@@H](N(C)c3nc(OC[C@@]45CCCN4C[C@H](F)C5)nc4c(F)c(-c5cc(O)cc(Cl)c5C5CC5)ncc34)C2)nc(C)n1 [Example 201]
3,10 to 100 nM,"C=CC(=O)N1CC[C@@H](N(C)c2nc(OC[C@@]34CCCN3C[C@H](F)C4)nc3c(F)c(-c4cccc(Cl)c4C(F)(F)F)ncc23)[C@H]1C (single isomer, unassigned) [Example 78]"
4,100 to 500 nM,Cc1cc(N)nc(-c2ncc3c(N(C)CC4CN(C(=O)/C=C/c5nc(C(C)C)no5)C4)nc(OC[C@@]45CCCN4C[C@H](F)C5)nc3c2F)c1C [Example 85]
5,100 to 500 nM,Cc1ncc(F)c(/C=C/C(=O)N2CC[C@@H](N(C)c3nc(OC[C@@]45CCCN4C[C@H](F)C5)nc4c(F)c(-c5cccc(Cl)c5C5CC5)ncc34)C2)n1 [Example 258]
6,10 to 100 nM,Cc1nsc(/C=C/C(=O)N2CC[C@@H](N(C)c3nc(OC[C@@]45CCCN4C[C@H](F)C5)nc4c(F)c(-c5nc(N)cc(C)c5C(F)(F)F)ncc34)C2)n1 [Example 164]
7,< 10 nM,CN1CC[C@@H]1/C=C/C(=O)N1CC[C@@H](N(C)c2nc(OC[C@@]34CCCN3C[C@H](F)C4)nc3c(F)c(-c4cccc(Cl)c4C4CC4)ncc23)C1 [Example 227]
8,100 to 500 nM,"C=CC(=O)N1CC(CN(C)c2nc(OC[C@@]34CCCN3C[C@H](F)C4)nc3c(F)c(-c4nc(N)ccc4C(F)(F)F)ncc23)C1 [Example 54, 1-(3-(((7-(6-amino-3-(trifluoromethyl)pyridin-2-yl)-8-fluoro-2-(((2R,7aS)-2-fluorohexahydro-1H-pyrrolizin-7a-yl)methoxy)pyrido[4,3-d]pyrimidin-4-yl)(methyl)amino)methyl)azetidin-1-yl)prop-2-en-1-one]"
9,10 to 100 nM,C=CC(=O)N1CC[C@@H](N(C)c2nc(OC[C@@]34CCCN3C[C@H](F)C4)nc3c(F)c(-c4c(Cl)c(C)cc5[nH]ncc45)ncc23)C1 [Example 194]
10,10 to 100 nM,"Cc1noc(/C=C/C(=O)N2CC[C@@H](N(C)c3nc(OC[C@@]45CCCN4C[C@H](F)C5)nc4c(F)c(-c5nc(N)cc(C)c5C)ncc34)C2)n1 [Example 52, (E)-1-((R)-3-((7-(6-amino-3,4-dimethylpyridin-2-yl)-8-fluoro-2-(((2R,7aS)-2-fluorotetrahydro-1H-pyrrolizin-7a(5H)-yl)methoxy)pyrido[4,3-d]pyrimidin-4-yl)(methyl)amino)pyrrolidin-1-yl)-3-(3-methyl-1,2,4-oxadiazol-5-yl)prop-2-en-1-one]"
11,≥ 500 nM,C=CC(=O)N1CC(CN(C)c2nc(OCC34CCCN3CCC4)nc3c2C[C@@H](C)[C@H](c2nc(N)cc(C)c2C(F)(F)F)C3)C1 [Example 199]
12,10 to 100 nM,CN(C)CC#CC(=O)N1CC(CN(C)c2nc(OC[C@@]34CCCN3C[C@H](F)C4)nc3c(F)c(-c4nc(N)cc5cccc(Cl)c45)ncc23)C1 [Example 110]
13,10 to 100 nM,CC(C)c1noc(/C=C/C(=O)N2CC[C@@H](N(C)c3nc(OC[C@@]45CCCN4C[C@H](F)C5)nc4c(F)c(-c5nc(N)ccc5OC(F)F)ncc34)C2)n1 [Example 214]
14,10 to 100 nM,CN1CC[C@H]1/C=C/C(=O)N1CC[C@@H](N(C)c2nc(OC[C@@]34CCCN3C[C@H](F)C4)nc3c(F)c(-c4nc(N)cc5cccc(Cl)c45)ncc23)C1 [Example 108]
15,< 10 nM,"Cc1noc(/C=C/C(=O)N2CC[C@@H](N(C)c3nc(OC[C@@]45CCCN4C[C@H](F)C5)nc4c3CC(C)C(c3nc(N)cc(C)c3C(F)(F)F)C4)C2)n1 (stereo partly drawn) [Example 65, (E)-1-((3R)-3-((7-(6-amino-4-methyl-3-(trifluoromethyl)pyridin-2-yl)-2-(((2R,7aS)-2-fluorohexahydro-1H-pyrrolizin-7a-yl)methoxy)-6-methyl-5,6,7,8-tetrahydroquinazolin-4-yl)(methyl)amino)pyrrolidin-1-yl)-3-(3-methyl-1,2,4-oxadiazol-5-yl)prop-2-en-1-one]"
16,100 to 500 nM,Cc1cc(/C=C/C(=O)N2CC(CN(C)c3nc(OC[C@@]45CCCN4C[C@H](F)C5)nc4c(F)c(-c5cc(O)cc(Cl)c5C5CC5)ncc34)C2)nc(C)n1 [Example 204]
17,≥ 500 nM,"Cc1nsc(/C=C/C(=O)N2CC[C@@H](N(C)c3nc(OC[C@@]45CCCN4C[C@H](F)C5)nc4c3C[C@H](C)[C@@H](c3nc(N)cc(C)c3C(F)(F)F)C4)C2)n1 [Example 88, (E)-1-((R)-3-(((6S,7S)-7-(6-amino-4-methyl-3-(trifluoromethyl)pyridin-2-yl)-2-(((2R,7aS)-2-fluorotetrahydro-1H-pyrrolizin-7a(5H)-yl)methoxy)-6-methyl-5,6,7,8-tetrahydroquinazolin-4-yl)(methyl)amino)pyrrolidin-1-yl)-3-(3-methyl-1,2,4-thiadiazol-5-yl)prop-2-en-1-one]"
18,≥ 500 nM,C=CC(=O)N1CC[C@@H](N(C)c2nc(OC[C@@]34CCCN3C[C@H](F)C4)nc3c(F)c(-c4c(C)cc(F)c5[nH]ncc45)ncc23)C1 [Example 232]
19,10 to 100 nM,"Cc1nccc(/C=C/C(=O)N2CC(CN(C)c3nc(OC[C@@]45CCCN4C[C@H](F)C5)nc4c(F)c(-c5nc(N)cc6cccc(Cl)c56)ncc34)C2)n1 [Example 156, (E)-1-(3-(((7-(3-amino-8-chloroisoquinolin-1-yl)-8-fluoro-2-(((2R,7aS)-2-fluorotetrahydro-1H-pyrrolizin-7a(5H)-yl)methoxy)pyrido[4,3-d]pyrimidin-4-yl)(methyl)amino)methyl)azetidin-1-yl)-3-(2-methylpyrimidin-4-yl)prop-2-en-1-one]"
20,100 to 500 nM,Cc1cc(/C=C/C(=O)N2CC(CN(C)c3nc(OC[C@@]45CCCN4C[C@H](F)C5)nc4c(F)c(-c5cccc(Cl)c5C5CC5)ncc34)C2)nc(C)n1 [Example 200]
21,< 10 nM,CN1CC[C@@H]1/C=C/C(=O)N1CC[C@@H](N(C)c2nc(OC[C@@]34CCCN3C[C@H](F)C4)nc3c(F)c(-c4nc(N)cc5cccc(Cl)c45)ncc23)C1 [Example 99]
22,< 10 nM,Cc1cc(N)nc(-c2ncc3c(N(C)[C@@H]4CCN(C(=O)/C=C/C5CCN5C)C4)nc(OC[C@@]45CCCN4C[C@H](F)C5)nc3c2F)c1C(F)(F)F (stereo in doubt) [Example 134]
23,100 to 500 nM,CN(c1nc(OC[C@@]23CCCN2C[C@H](F)C3)nc2c(F)c(-c3nc(N)cc4cccc(Cl)c34)ncc12)[C@@H]1CCN(C(=O)/C=C/CN2CCOCC2)C1 [Example 116]
24,10 to 100 nM,"Cc1nccc(/C=C/C(=O)N2CC(CN(C)c3nc(OC[C@@]45CCCN4C[C@H](F)C5)nc4c(F)c(-c5nc(N)cc6cccc(F)c56)ncc34)C2)n1 [Example 141, (E)-1-(3-(((7-(3-amino-8-fluoroisoquinolin-1-yl)-8-fluoro-2-(((2R,7aS)-2-fluorotetrahydro-1H-pyrrolizin-7a(5H)-yl)methoxy)pyrido[4,3-d]pyrimidin-4-yl)(methyl)amino)methyl)azetidin-1-yl)-3-(2-methylpyrimidin-4-yl)prop-2-en-1-one]"
25,10 to 100 nM,Cc1cc(N)nc(-c2ncc3c(N(C)CC4CN(C(=O)C#CCN5CCOCC5)C4)nc(OC[C@@]45CCCN4C[C@H](F)C5)nc3c2F)c1C(F)(F)F [Example 114]
26,≥ 500 nM,C=CC(=O)N1CC[C@@H](N(C)c2nc(OC[C@@]34CCCN3C[C@H](F)C4)nc3c(F)c(-c4ncn5ccccc45)ncc23)C1 [Example 246]
